The test system of the series is CCRIS mutagenicity, Ames/micronucleus/aberration tests. Briefly: CCRIS mutagenicity studies. To be noted: Test System: AMES SALMONELLA TYPHIMURIUM, Method: STANDARD PLATE.
Setting [1] is: Strain/Indicator: TA98, Metabolic Activation: NONE.
Where [2] appears, read: Strain/Indicator: TA98, Metabolic Activation: RAT, LIVER, S-9, AROCLOR 1254.
Setting [3] is: Strain/Indicator: TA100, Metabolic Activation: NONE.
Where [4] appears, read: Strain/Indicator: TA100, Metabolic Activation: RAT, LIVER, S-9, AROCLOR 1254.
The mark [5] stands for this setting: Strain/Indicator: TA1537, Metabolic Activation: NONE.
[6] abbreviates: Strain/Indicator: TA1537, Metabolic Activation: RAT, LIVER, S-9, AROCLOR 1254.

The structures appear in SMILES notation. Activity calls are given as the source filed them. No rule for the calls is given here.

For the compound `Cc1c(N)c(=O)n(-c2ccccc2)n1C`, the mutagenic call is, setting by setting: (Strain/Indicator: TA97, Metabolic Activation: NONE) “active; positive”; (Strain/Indicator: TA97, Metabolic Activation: RAT, LIVER, S-9, AROCLOR 1254) “active; positive”; (Strain/Indicator: TA97A, Metabolic Activation: RAT, LIVER, S-9, AROCLOR 1254) “active; positive”; under setting [1], “inactive; negative”; under setting [2], “inactive; negative”; under setting [3], “inactive; negative”. Besides, the mutagenic call reads like this: under setting [4], “inactive; negative”; (Strain/Indicator: TA102, Metabolic Activation: NONE) “inactive; negative”; (Strain/Indicator: TA102, Metabolic Activation: RAT, LIVER, S-9, AROCLOR 1254) “inactive; negative”; (Strain/Indicator: TA104, Metabolic Activation: NONE) “inactive; negative”; (Strain/Indicator: TA104, Metabolic Activation: RAT, LIVER, S-9, AROCLOR 1254) “inactive; negative”; under setting [5], “inactive; negative”. Further, the mutagenic call under setting [6] was “inactive; negative”.

Consider `CCN(CCC#N)c1ccc(N=Nc2c(Cl)cc([N+](=O)[O-])cc2Cl)cc1`, for which the mutagenic call reads like this: under setting [1], “active; positive”; under setting [2], “active; positive”; (Strain/Indicator: YG1041, Metabolic Activation: NONE) “active; positive”; (Strain/Indicator: YG1041, Metabolic Activation: RAT, LIVER, S-9, AROCLOR 1254) “active; positive”.

`C=CC(=O)OCCOCCOC(=O)C=C`: the mutagenic call under setting [1] was “inactive; negative”; the mutagenic call under setting [2] was “inactive; negative”; the mutagenic call (Strain/Indicator: TA98, Metabolic Activation: RAT, LIVER, S-9, SODIUM PHENOBARBITAL) was “inactive; negative”; the mutagenic call under setting [3] is “inactive; negative”; the mutagenic call under setting [4] is “inactive; negative”; the mutagenic call (Strain/Indicator: TA100, Metabolic Activation: RAT, LIVER, S-9, SODIUM PHENOBARBITAL) was “inactive; negative”. Also, the mutagenic call is “inactive; negative” (Strain/Indicator: TA1535, Metabolic Activation: NONE); “inactive; negative” (Strain/Indicator: TA1535, Metabolic Activation: RAT, LIVER, S-9, AROCLOR 1254); “inactive; negative” (Strain/Indicator: TA1535, Metabolic Activation: RAT, LIVER, S-9, SODIUM PHENOBARBITAL); “inactive; negative” under setting [5]; “inactive; negative” under setting [6]; “inactive; negative” (Strain/Indicator: TA1537, Metabolic Activation: RAT, LIVER, S-9, SODIUM PHENOBARBITAL). For the same compound, the mutagenic call runs as follows: (Strain/Indicator: TA1538, Metabolic Activation: NONE) “inactive; negative”; (Strain/Indicator: TA1538, Metabolic Activation: RAT, LIVER, S-9, AROCLOR 1254) “inactive; negative”; (Strain/Indicator: TA1538, Metabolic Activation: RAT, LIVER, S-9, SODIUM PHENOBARBITAL) “inactive; negative”.
